Experimental data from publication PMC11946255, “Extraction of Cannabinoids and Terpenes from Hemp Flowers and Leaves (Cannabis sativa L., Futura 75): Chemical Profiling and Evaluation of Anticancer Properties” (Molecules, 2025).
Values after ≈ are worked out from the molar mass of the structure shown.

Legend:
[1] = system: colon adenocarcinoma HT-29; assay: Antiproliferative activity, SRB assay, HT-29; format: cell-based, human; conditions: for IC50 HT-29 / IC50: 72 h incubation, SRB, mean ± SD; for Calculated Selectivity Index SI HT-29: SI = IC50 MCF-10A / IC50 HT-29; for IC50: Homo sapiens, HT-29
[2] = system: gastric adenocarcinoma AGS; assay: Antiproliferative activity, SRB assay, AGS; format: cell-based, human; conditions: for IC50 AGS / IC50: 72 h incubation, SRB, mean ± SD; for Calculated Selectivity Index SI AGS: SI = IC50 MCF-10A / IC50 AGS; for IC50: Homo sapiens
[3] = system: normal breast epithelial MCF-10A cells; assay: Cytotoxicity, SRB assay, MCF-10A; format: cell-based, human; conditions: 72 h incubation, non-tumorigenic cells, mean ± SD; for IC50: Homo sapiens, MCF-10A
Procedure: (§1) Two extracts, Futu 1 and Futu 2, were selected for the study of their antiproliferative activity against six human cancer cell lines: biphenotypic B myelomonocytic leukemia (MV4-11), lung carcinoma (A549), colon adenocarcinoma (HT-29), gastric adenocarcinoma (AGS), and breast carcinomas (MCF-7 (ER+) and MDA-MB-468 (TNBC)). Additionally, their cytotoxicity and potential safety for use were assessed on normal human breast epithelial cells (MCF-10A). This study aimed to determine the effectiveness of these extracts in inhibiting cancer cell growth while ensuring minimal toxicity to normal cells. The first extract, Futu 1, contained the highest amount of cannabinoid fraction (51.57%) among all tested extracts, and the terpene fraction consisted of 9.8% monoterpenes and 90.2% of sesquiterpenes. Futu 1 was obtained using pressurized extraction with the following process parameters: a pressure of 1 bar, a solvent mixture of hexane/ethanol (7:3, v/v), and a temperature of 25 °C. The second extract, Futu 2, was selected for its higher monoterpene content (19.6%) in the terpene fraction in comparison to sesquiterpenes (80.4%) and its 49.49% content of cannabinoids. This extract was also obtained via pressurized extraction, using a pressure of 1 bar, a solvent mixture of hexane/isopropanol (7:3, v/v), and a temperature of −55 °C. After 72 h of incubation of cancer and normal cells with cannabinoids and the extracts Futu 1 or Futu 2, antiproliferative activity was assessed using the MTT assay (for MV4-11) or the SRB assay. The percentage of cell growth inhibition was calculated and IC50 values were determined (Table 3).
(§2) Human cell lines: biphenotypic B myelomonocytic leukemia MV4-11, gastric adenocarcinoma AGS, colon adenocarcinoma HT-29, and normal breast MCF-10A cells were obtained from American Type Culture Collection (ATCC) in the United States; lung carcinoma A549 and breast cancer MCF-7 were obtained from European Collection of Authenticated Cell Cultures (ECACC). Human breast cancer MDA-MB-468 cells were obtained from Leibniz Institute DSMZ (German Collection of Microorganisms and Cell Cultures). All the cell lines were maintained at the Hirszfeld Institute of Immunology and Experimental Therapy, PAS, Wroclaw, Poland. MV4-11 and MDA-MB-468 cells were cultured in RPMI 1640 medium (IIET PAS, Wrocław, Poland) with 1.0 mM sodium pyruvate (only MV4-11) and 10% (MV4-11) or 20% (MDA-MB-468) fetal bovine serum (FBS) (all from Merck, Darmstadt, Germany). A549, HT-29, and AGS cells were cultured in RPMI 1640 + Opti-MEM (1:1) medium (IIET PAS, Wrocław, Poland, and Gibco, London, UK) supplemented with 5% FBS (Merck, Darmstadt, Germany) and 1.0 mM sodium pyruvate (only HT-29). The MCF-7 cells were cultured in Eagle medium (IIET PAS, Wrocław, Poland) supplemented with 8 microg/mL of insulin and 1% MEM NON-Essential amino acid (all Merck, Darmstadt, Germany). Normal breast epithelial MCF-10A cells were cultured in the HAM’S F-12 medium, which was supplemented with 10% Horse Serum (Gibco, London, UK), 20 ng/mL EGFh, 10 µg/mL insulin, and 0.5 µg/mL Hydrocortisone and 0.05 mg/mL Cholera Toxin from Vibrio cholerae were from Merck, Darmstadt, Germany.
The antiproliferative activity of cannabinoids (in concentrations of 1 mg/mL in methanol) and the plant extracts named Futu1 and Futu2 (the solutions were prepared by dissolving the substance in methanol to a concentration of 50 mg/mL) were tested against 6 cancer cell lines. Their cytotoxicity was also tested against one normal cell line. The tested mixtures of compounds were diluted in a culture medium to reach the final concentrations. Before adding the tested compounds (24 h prior), the cells were plated in 384-well plates (Greiner Bio-One) at a density of 1 × 10^3 (A549), 1.5 × 10^3 (MDA-MB-468, HT-29, MCF-7), or 2 × 10^3 (AGS, MCF-10A) cells per well. The MV4-11 cells were plated in 96-well plates (Corning) at a density of 5 × 10^3 cells per well. […]

[4] = system: biphenotypic B myelomonocytic leukemia MV4-11; assay: Antiproliferative activity, MTT assay, MV4-11; format: cell-based, human; conditions: 2 μg/mL, 72 h, compared to untreated control cells
Procedure: as §1
as §2, with “The MCF-7 cells were cultured in Eagle medium (IIET PAS, Wrocław, Poland) supplemented with 8 microg/mL of insulin and 1% MEM NON-Essential amino acid (all Merck, Darmstadt, Germany). Normal breast epithelial MCF-10A cells were cultured in the HAM’S F-12 medium, which was supplemented with 10% Horse Serum (Gibco, London, UK), 20 ng/mL EGFh, 10 µg/mL insulin, and 0.5 µg/mL Hydrocortisone and 0.05 mg/mL Cholera Toxin from Vibrio cholerae were from Merck, Darmstadt, Germany.” left out

[5] = system: breast cancer MCF-7 (ER+); assay: Antiproliferative activity, SRB assay, MCF-7; format: cell-based, human; conditions: for IC50 MCF-7 / IC50: 72 h incubation, SRB, mean ± SD; for Calculated Selectivity Index SI MCF-7: SI = IC50 MCF-10A / IC50 MCF-7; for IC50: Homo sapiens, MCF7
lung carcinoma A549 = assay: Antiproliferative activity, SRB assay, A549; format: cell-based, human; conditions: for IC50 A549 / IC50: 72 h incubation, SRB, mean ± SD; for Calculated Selectivity Index SI A549: SI = IC50 MCF-10A / IC50 A549; for IC50: Homo sapiens, A549
[6] = system: lung (A549), colon (HT-29), gastric (AGS), and breast (MCF-7, ER+) cancer cell lines; assay: Antiproliferative activity, SRB assay, summarised over the cancer cell lines; format: cell-based; conditions: Homo sapiens; 72 h, range across the four cancer cell lines
Procedure: as §1, with “The second extract, Futu 2, was selected for its higher monoterpene content (19.6%) in the terpene fraction in comparison to sesquiterpenes (80.4%) and its 49.49% content of cannabinoids. This extract was also obtained via pressurized extraction, using a pressure of 1 bar, a solvent mixture of hexane/isopropanol (7:3, v/v), and a temperature of −55 °C.” left out, “3). […]” for “3).”

| SMILES | IC50 HT-29 [1] [µg/mL] | Calculated Selectivity Index SI HT-29 [1] | IC50 AGS [2] [µg/mL] | Calculated Selectivity Index SI AGS [2] | IC50 MCF-10A [3] [µg/mL] | Stimulation of MV4-11 cell growth [4] [%] | IC50 MCF-7 [5] [µg/mL] | Calculated Selectivity Index SI MCF-7 [5] | IC50 A549 (lung carcinoma A549) [µg/mL] | Calculated Selectivity Index SI A549 (lung carcinoma A549) | IC50 [1] [µg/mL] | IC50 [2] [µg/mL] | IC50 [3] [µg/mL] | IC50 [5] [µg/mL] | IC50 (lung carcinoma A549) [µg/mL] | IC50 [6] [µg/mL] |
| --- | --- | --- | --- | --- | --- | --- | --- | --- | --- | --- | --- | --- | --- | --- | --- | --- |
| CCCCCc1cc(O)c2c(c1)OC(C)(C)[C@@H]1CCC(C)=C[C@@H]21 (relative stereo) [THC, (–)-trans-Δ^9-tetrahydrocannabinol] | 3.73 ± 0.59 (≈ 11.9 µM) | 2.98 | 6.35 ± 1.35 (≈ 20.2 µM) | 1.75 | 11.13 ± 0.72 (≈ 35.4 µM) | 180 | 8.4 ± 1.26 (≈ 26.7 µM) | 1.33 | 3.94 ± 0.44 (≈ 12.5 µM) | 2.82 | – | – | – | – | – | – |
| CCCCCc1cc(O)c2c(c1)OC(C)(CCC=C(C)C)C=C2 (centres unmarked) [CBC, cannabichromene] | – | 1.77 | – | 1.9 | – | 140 | – | 1.39 | – | 3.23 | 5.94 ± 1.86 (≈ 18.9 µM) | 5.53 ± 0.88 (≈ 17.6 µM) | 10.5 ± 0.46 (≈ 33.5 µM) | 7.56 ± 1.52 (≈ 24 µM) | 3.26 ± 0.2 (≈ 10.4 µM) | – |
| C=C(C)[C@@H]1CCC(C)=C[C@H]1c1c(O)cc(CCCCC)cc1O [CBD, cannabidiol] | – | 3.47 | – | 2.82 | – | 140 | – | 2.87 | – | 3.68 | 3.04 ± 0.52 (≈ 9.67 µM) | 3.74 ± 0.28 (≈ 11.9 µM) | 10.6 ± 0.63 (≈ 33.5 µM) | 3.67 ± 0.55 (≈ 11.7 µM) | 2.87 ± 0.24 (≈ 9.13 µM) | 2.87 to 3.74 (≈ 9.13 to 11.9 µM) |
| C=C(C)[C@@H]1CCC(C)=C[C@H]1c1c(O)cc(CCC)cc1O [CBDV] | 3.6 ± 0.4 (≈ 12.6 µM) | 3.12 | 8.4 ± 1.98 (≈ 29.3 µM) | 1.34 | 11.24 ± 0.26 (≈ 39.2 µM) | – | 8.43 ± 2.05 (≈ 29.4 µM) | 1.33 | 6.22 ± 2.26 (≈ 21.7 µM) | 1.81 | – | – | – | – | – | – |
| CCCCCc1cc(O)c(C/C=C(\C)CCC=C(C)C)c(O)c1 [CBG, cannabigerol] | – | 1.07 | – | 1.76 | – | – | – | 1.45 | – | 2.89 | 10 ± 1.14 (≈ 31.7 µM) | 6.11 ± 1.31 (≈ 19.3 µM) | 10.7 ± 0.71 (≈ 33.9 µM) | 7.43 ± 1.43 (≈ 23.5 µM) | 3.71 ± 0.46 (≈ 11.7 µM) | – |
| CCCCCc1cc(O)c2c(c1)OC(C)(C)c1ccc(C)cc1-2 [CBN, cannabinol] | – | 1.78 | – | 1.75 | – | 140 | – | 1.87 | – | 3.27 | 6.07 ± 2.11 (≈ 19.6 µM) | 6.18 ± 0.98 (≈ 19.9 µM) | 10.8 ± 0.68 (≈ 34.8 µM) | 5.79 ± 1.79 (≈ 18.7 µM) | 3.3 ± 0.15 (≈ 10.6 µM) | – |
